Reference: the supplement of paper PMC10307832

Key:
Assay in all cases: relative viability (nuclei count vs DMSO), 5 days (fraction); higher = more cells survive
NCI-H522 = test system: NCI-H522
In short: (§1)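 Relative viability was taken as the ratio of nuclei in treated wells to nuclei in vehicle wells. Lung cancer cell lines in 1536-well plates received compounds by pin tool one day after seeding, either one drug alone or a fixed anchor-drug dose plus five library-drug doses (not always all listed) in √10 steps. Nuclei were counted on 4× images after 5 days of treatment, and values are medians of duplicate plates.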

NCI-H1648 = test system: NCI-H1648
In short: as §1

NCI-H1703 = test system: NCI-H1703
In short: as §1

SW 900 = test system: SW 900
In short: as §1

NCI-H2342 = test system: NCI-H2342
In short: as §1

Calu-6 = test system: Calu-6
In short: as §1

IA-LM = test system: IA-LM
In short: as §1

EBC-1 = test system: EBC-1
In short: as §1

NCI-H1299 = test system: NCI-H1299
In short: as §1

A549 = test system: A549
In short: as §1

**Q.** With `O=C(O)CCCCC(CCSCc1ccccc1)SCc1ccccc1` (stereo not given) [CPI-613] + NC(=O)Nc1cc(-c2cccc(F)c2)sc1C(=O)N[C@H]1CCCNC1 [AZD7762] (partner 0.2 µM) as the compound, how does the relative viability (NCI-H522; first compound 5 µM) read?
**A.** 0.899

**Q.** And the relative viability (NCI-H522; first compound 15.81 µM)?
**A.** 0.887

**Q.** What about the relative viability (NCI-H522; first compound 50 µM) of the same compound?
**A.** 0.953

**Q.** And the relative viability (NCI-H522; first compound 158.11 µM)?
**A.** 0.631

**Q.** What about the relative viability (NCI-H522; first compound 500 µM) of the same compound?
**A.** 0.563

**Q.** What about the relative viability (NCI-H1648; first compound 5 µM) of the same compound?
**A.** 0.622

**Q.** And the relative viability (NCI-H1648; first compound 15.81 µM)?
**A.** 0.701

**Q.** What about the relative viability (NCI-H1648; first compound 50 µM) of the same compound?
**A.** 0.645

**Q.** What about the relative viability (NCI-H1648; first compound 158.11 µM) of the same compound?
**A.** 0.626

**Q.** And the relative viability (NCI-H1648; first compound 500 µM)?
**A.** 0.665

**Q.** And the relative viability (NCI-H1703; first compound 5 µM)?
**A.** 0.133

**Q.** What about the relative viability (NCI-H1703; first compound 15.81 µM) of the same compound?
**A.** 0.12

**Q.** And the relative viability (NCI-H1703; first compound 50 µM)?
**A.** 0.134

**Q.** What about the relative viability (NCI-H1703; first compound 158.11 µM) of the same compound?
**A.** 0.118

**Q.** What about the relative viability (NCI-H1703; first compound 500 µM) of the same compound?
**A.** 0.12

**Q.** What about the relative viability (SW 900; first compound 5 µM) of the same compound?
**A.** 0.685

**Q.** What about the relative viability (SW 900; first compound 50 µM) of the same compound?
**A.** 0.692

**Q.** What about the relative viability (SW 900; first compound 158.11 µM) of the same compound?
**A.** 0.273

**Q.** And the relative viability (SW 900; first compound 500 µM)?
**A.** 0.0039

**Q.** What about the relative viability (NCI-H2342; first compound 5 µM) of the same compound?
**A.** 0.489

**Q.** What about the relative viability (NCI-H2342; first compound 15.81 µM) of the same compound?
**A.** 0.454

**Q.** What about the relative viability (NCI-H2342; first compound 50 µM) of the same compound?
**A.** 0.437

**Q.** And the relative viability (NCI-H2342; first compound 158.11 µM)?
**A.** 0.522

**Q.** And the relative viability (NCI-H2342; first compound 500 µM)?
**A.** 0.576

**Q.** How did the relative viability (NCI-H522; first compound 0.08 µM) turn out when `Cc1cnc(-c2cnc(NCCNc3ccc(C#N)cn3)nc2-c2ccc(Cl)cc2Cl)[nH]1` + NC(=O)Nc1cc(-c2cccc(F)c2)sc1C(=O)N[C@H]1CCCNC1 [AZD7762] (partner 0.2 µM) was run?
**A.** 0.868

**Q.** And the relative viability (NCI-H522; first compound 0.253 µM)?
**A.** 0.798

**Q.** What about the relative viability (NCI-H522; first compound 0.8 µM) of the same compound?
**A.** 0.768

**Q.** And the relative viability (NCI-H522; first compound 2.53 µM)?
**A.** 0.789

**Q.** What about the relative viability (NCI-H1648; first compound 0.08 µM) of the same compound?
**A.** 0.542

**Q.** And the relative viability (NCI-H1648; first compound 0.253 µM)?
**A.** 0.579

**Q.** And the relative viability (NCI-H1648; first compound 0.8 µM)?
**A.** 0.643

**Q.** And the relative viability (NCI-H1648; first compound 2.53 µM)?
**A.** 0.624

**Q.** What about the relative viability (NCI-H1703; first compound 0.08 µM) of the same compound?
**A.** 0.14

**Q.** And the relative viability (NCI-H1703; first compound 0.253 µM)?
**A.** 0.128

**Q.** And the relative viability (NCI-H1703; first compound 2.53 µM)?
**A.** 0.13

**Q.** And the relative viability (SW 900; first compound 0.08 µM)?
**A.** 0.736

**Q.** And the relative viability (SW 900; first compound 0.253 µM)?
**A.** 0.548

**Q.** What about the relative viability (SW 900; first compound 0.8 µM) of the same compound?
**A.** 0.507

**Q.** What about the relative viability (SW 900; first compound 2.53 µM) of the same compound?
**A.** 0.452

**Q.** And the relative viability (NCI-H2342; first compound 0.08 µM)?
**A.** 0.516

**Q.** What about the relative viability (NCI-H2342; first compound 0.253 µM) of the same compound?
**A.** 0.473

**Q.** What about the relative viability (NCI-H2342; first compound 0.8 µM) of the same compound?
**A.** 0.484

**Q.** And the relative viability (NCI-H2342; first compound 2.53 µM)?
**A.** 0.46

**Q.** With `Cc1cnc(-c2cnc(NCCNc3ccc(C#N)cn3)nc2-c2ccc(Cl)cc2Cl)[nH]1` + O=C(c1cc(Cc2n[nH]c(=O)c3ccccc23)ccc1F)N1CCN(C(=O)C2CC2)CC1 [Olaparib] (partner 8 µM) as the compound, how does the relative viability (Calu-6; first compound 0.08 µM) read?
**A.** 0.532

**Q.** What about the relative viability (Calu-6; first compound 0.253 µM) of the same compound?
**A.** 0.547

**Q.** And the relative viability (Calu-6; first compound 2.53 µM)?
**A.** 0.468

**Q.** What about the relative viability (IA-LM; first compound 0.08 µM) of the same compound?
**A.** 0.77

**Q.** What about the relative viability (IA-LM; first compound 0.253 µM) of the same compound?
**A.** 0.766

**Q.** What about the relative viability (IA-LM; first compound 0.8 µM) of the same compound?
**A.** 0.87

**Q.** And the relative viability (IA-LM; first compound 2.53 µM)?
**A.** 0.709

**Q.** And the relative viability (NCI-H522; first compound 0.08 µM)?
**A.** 0.641

**Q.** And the relative viability (NCI-H522; first compound 0.253 µM)?
**A.** 0.668

**Q.** And the relative viability (NCI-H522; first compound 0.8 µM)?
**A.** 0.681

**Q.** What about the relative viability (NCI-H522; first compound 2.53 µM) of the same compound?
**A.** 0.643

**Q.** What about the relative viability (EBC-1; first compound 0.08 µM) of the same compound?
**A.** 0.619

**Q.** What about the relative viability (EBC-1; first compound 0.253 µM) of the same compound?
**A.** 0.608

**Q.** What about the relative viability (EBC-1; first compound 0.8 µM) of the same compound?
**A.** 0.673

**Q.** What about the relative viability (EBC-1; first compound 2.53 µM) of the same compound?
**A.** 0.9

**Q.** What about the relative viability (NCI-H1648; first compound 0.08 µM) of the same compound?
**A.** 0.723

**Q.** What about the relative viability (NCI-H1648; first compound 0.253 µM) of the same compound?
**A.** 0.761

**Q.** And the relative viability (NCI-H1648; first compound 0.8 µM)?
**A.** 1.2

**Q.** And the relative viability (NCI-H1648; first compound 2.53 µM)?
**A.** 0.865

**Q.** And the relative viability (NCI-H1703; first compound 0.08 µM)?
**A.** 0.48

**Q.** What about the relative viability (NCI-H1703; first compound 0.253 µM) of the same compound?
**A.** 0.378

**Q.** What about the relative viability (NCI-H1703; first compound 0.8 µM) of the same compound?
**A.** 0.448

**Q.** What about the relative viability (NCI-H1703; first compound 2.53 µM) of the same compound?
**A.** 0.486

**Q.** What about the relative viability (SW 900; first compound 0.08 µM) of the same compound?
**A.** 0.827

**Q.** And the relative viability (SW 900; first compound 0.253 µM)?
**A.** 0.913

**Q.** What about the relative viability (SW 900; first compound 0.8 µM) of the same compound?
**A.** 0.848

**Q.** What about the relative viability (SW 900; first compound 2.53 µM) of the same compound?
**A.** 0.561

**Q.** What about the relative viability (NCI-H2342; first compound 0.08 µM) of the same compound?
**A.** 0.438

**Q.** What about the relative viability (NCI-H2342; first compound 0.253 µM) of the same compound?
**A.** 0.387

**Q.** What about the relative viability (NCI-H2342; first compound 0.8 µM) of the same compound?
**A.** 0.43

**Q.** What about the relative viability (NCI-H2342; first compound 2.53 µM) of the same compound?
**A.** 0.439

**Q.** What about the relative viability (NCI-H1299; first compound 0.08 µM) of the same compound?
**A.** 0.953

**Q.** What about the relative viability (NCI-H1299; first compound 0.253 µM) of the same compound?
**A.** 0.957

**Q.** What about the relative viability (NCI-H1299; first compound 0.8 µM) of the same compound?
**A.** 0.968

**Q.** And the relative viability (NCI-H1299; first compound 2.53 µM)?
**A.** 0.856

**Q.** And the relative viability (A549; first compound 0.08 µM)?
**A.** 0.233

**Q.** And the relative viability (A549; first compound 0.253 µM)?
**A.** 0.264

**Q.** And the relative viability (A549; first compound 0.8 µM)?
**A.** 0.288

**Q.** What about the relative viability (A549; first compound 2.53 µM) of the same compound?
**A.** 0.3

**Q.** What does the source list for `O=c1[nH]c2ccccc2n1C1CCN(CCCC(c2ccc(F)cc2)c2ccc(F)cc2)CC1` [Pimozide] + Nc1ncn([C@H]2C[C@H](O)[C@@H](CO)O2)c(=O)n1 [Decitabine] (partner 2 µM)?
**A.** relative viability (NCI-H522; first compound 0.08 µM): 0.679; relative viability (NCI-H522; first compound 0.253 µM): 0.693; relative viability (NCI-H522; first compound 0.8 µM): 0.615; relative viability (NCI-H522; first compound 2.53 µM): 0.698; relative viability (NCI-H522; first compound 8 µM): 0.771; relative viability (NCI-H1648; first compound 0.08 µM): 0.392; relative viability (NCI-H1648; first compound 0.8 µM): 0.466; relative viability (NCI-H1648; first compound 2.53 µM): 0.55; relative viability (NCI-H1648; first compound 8 µM): 0.517; relative viability (SW 900; first compound 0.08 µM): 0.451; relative viability (SW 900; first compound 0.253 µM): 0.415; relative viability (SW 900; first compound 2.53 µM): 0.548; relative viability (SW 900; first compound 8 µM): 0.472; relative viability (NCI-H2342; first compound 0.08 µM): 0.698; relative viability (NCI-H2342; first compound 0.253 µM): 0.74; relative viability (NCI-H2342; first compound 0.8 µM): 0.715; relative viability (NCI-H2342; first compound 2.53 µM): 0.746; relative viability (NCI-H2342; first compound 8 µM): 0.725; relative viability (A549; first compound 0.08 µM): 0.307; relative viability (A549; first compound 0.253 µM): 0.208; relative viability (A549; first compound 0.8 µM): 0.211; relative viability (A549; first compound 2.53 µM): 0.312; relative viability (A549; first compound 8 µM): 0.199
